Measurements reported in ChEMBL document CHEMBL4219024, “A "Click Chemistry Platform" for the Rapid Synthesis of Bispecific Molecules for Inducing Protein Degradation” (J Med Chem, 2018).
Converted amounts (≈) assume the structure as drawn. The source made the active and inactive calls. The calls are words filed in the database; no cut-off is given here.

Legend:
[1] = target: T1, von Hippel-Lindau disease tumor suppressor/Bromodomain-containing protein 4 (Homo sapiens) (UniProt O60885+P40337); assay: Induction of human His-tagged VHL(1 to 154)/GST-tagged BRD4 (49 to 170 residues) interaction assessed as VHL/BRD4/compound complex formation preincubated for 60 mins and measured after 60 mins by luminescence based Alphascreen proximity assay relative to control; assay type: protein assay
physchem = conditions: fasted state simulated intestinal fluid
[2] = target: T2, Protein cereblon/Bromodomain-containing protein 4/DNA damage-binding protein 1 (Homo sapiens, UniProt O60885+Q96SW2+Q16531); assay: Induction of CRBN/DDB1-mediated BRD4 protein degradation in human NCI-H661 cells assessed as drug level causing 50% cellular protein depletion incubated for 4 hrs by MSD assay
[3] = Solubility of the compound in 0.01 N HCl
[4] = Solubility of the compound in PBS
[5] = target: T1, von Hippel-Lindau disease tumor suppressor/Bromodomain-containing protein 4 (Homo sapiens); assay: Proteolysis targeting chimera activity in human NCI-H661 cells assessed as induction of VHL-mediated delivery of BRD4 for protein degradation by proteasome after 4 hrs in presence of 2-(prop-2-ynyloxy)ethanol by Meso Scale Diagnostics assay; assay type: cell-based
[6] = target: T2, Protein cereblon/Bromodomain-containing protein 4/DNA damage-binding protein 1; assay: Proteolysis targeting chimera activity in human NCI-H661 cells assessed as induction of CRBN/DDB1-mediated delivery of BRD4 for protein degradation by proteasome at 10 uM after 4 hrs by Meso Scale Diagnostics assay; assay type: cell-based
[7] = target: T2, Protein cereblon/Bromodomain-containing protein 4/DNA damage-binding protein 1; assay: Proteolysis targeting chimera activity in human NCI-H661 cells assessed as induction of CRBN/DDB1-mediated delivery of BRD4 for protein degradation by proteasome at 1 uM after 4 hrs in presence of 10 uM of JQ-1 by Meso Scale Diagnostics assay; assay type: cell-based
[8] = target: T2, Protein cereblon/Bromodomain-containing protein 4/DNA damage-binding protein 1; assay: Proteolysis targeting chimera activity in human NCI-H661 cells assessed as induction of CRBN/DDB1-mediated delivery of BRD4 for protein degradation at 1 uM after 4 hrs by Meso Scale Diagnostics assay; assay type: cell-based
[9] = target: T2, Protein cereblon/Bromodomain-containing protein 4/DNA damage-binding protein 1; assay: Proteolysis targeting chimera activity in human NCI-H661 cells assessed as induction of CRBN/DDB1-mediated delivery of BRD4 for protein degradation by proteasome at 1 uM after 4 hrs in presence of 20 uM MG132 by Meso Scale Diagnostics assay; assay type: cell-based
[10] = target: T2, Protein cereblon/Bromodomain-containing protein 4/DNA damage-binding protein 1; assay: Proteolysis targeting chimera activity in human NCI-H661 cells assessed as induction of CRBN/DDB1-mediated delivery of BRD4 for protein degradation by proteasome at 1 uM after 4 hrs in presence of 10 uM thalidomide by Meso Scale Diagnostics assay; assay type: cell-based

T1 sequence (P40337 whole entry, looked up, other chains not shown, the tested form may be a part): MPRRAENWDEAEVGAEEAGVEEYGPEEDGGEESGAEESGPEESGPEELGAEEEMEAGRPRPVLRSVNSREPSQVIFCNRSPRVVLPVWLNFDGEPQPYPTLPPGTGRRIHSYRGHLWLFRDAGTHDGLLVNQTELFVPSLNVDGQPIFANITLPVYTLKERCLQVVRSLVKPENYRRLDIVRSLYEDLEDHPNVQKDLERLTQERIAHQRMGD

Row | Compound | %max [1] [%] | solubility (physchem) [µM] | solubility ([3]; 0.01 N HCl) [µM] | solubility [4] [µM] | DC50 [2] [nM] | also measured
1 | Cc1ncsc1-c1ccc(CNC(=O)[C@@H]2C[C@@H](O)CN2C(=O)[C@@H](NC(=O)COCCOCc2cn(CCNC(=O)C[C@@H]3N=C(c4ccc(Cl)cc4)c4c(sc(C)c4C)-n4c(C)nnc43)nn2)C(C)(C)C)cc1 | 22 | 178 (≈ 185 µg/mL) | 343 (≈ 357 µg/mL) | 38 (≈ 39.5 µg/mL) | 83 | Activity [5]: inactive
2 | Cc1ncsc1-c1ccc(CNC(=O)[C@@H]2C[C@@H](O)CN2C(=O)[C@@H](NC(=O)COCCOCCOCCOCc2cn(CCNC(=O)C[C@@H]3N=C(c4ccc(Cl)cc4)c4c(sc(C)c4C)-n4c(C)nnc43)nn2)C(C)(C)C)cc1 | 15 | 294 (≈ 332 µg/mL) | 394 (≈ 444 µg/mL) | 168 (≈ 189 µg/mL) | 460 | –
3 | Cc1ncsc1-c1ccc(CNC(=O)[C@@H]2C[C@@H](O)CN2C(=O)[C@@H](NC(=O)COCCOCCOCCNC(=O)C[C@@H]2N=C(c3ccc(Cl)cc3)c3c(sc(C)c3C)-n3c(C)nnc32)C(C)(C)C)cc1 | 100 | 164 (≈ 164 µg/mL) | – | 97 (≈ 97.3 µg/mL) | – | solubility ([3]; buffer): 450 µM (≈ 451 µg/mL)
4 | Cc1sc2c(c1C)C(c1ccc(Cl)cc1)=N[C@@H](CC(=O)NCCN=[N+]=[N-])c1nnc(C)n1-2 | – | – | – | – | – | Activity [6]: inactive
5 | Cc1ncsc1-c1ccc(CNC(=O)[C@H]2CN(C(=O)[C@@H](NC(=O)COCc3cn(CCNC(=O)C[C@@H]4N=C(c5ccc(Cl)cc5)c5c(sc(C)c5C)-n5c(C)nnc54)nn3)C(C)(C)C)C[C@@H]2O)cc1 | 46 | 90 (≈ 89.6 µg/mL) | 314 (≈ 313 µg/mL) | – | 59 | –
6 | C#CCOCCOCCOCCOCCOc1cccc2c1C(=O)N(C1CCC(=O)NC1=O)C2=O (stereo unspecified) | – | – | – | – | – | Activity [6]: inactive
7 | Cc1ncsc1-c1ccc(CNC(=O)[C@@H]2C[C@@H](O)CN2C(=O)[C@@H](NC(=O)COCCOCCOCCOCCOCc2cn(CCNC(=O)C[C@@H]3N=C(c4ccc(Cl)cc4)c4c(sc(C)c4C)-n4c(C)nnc43)nn2)C(C)(C)C)cc1 | 3 | 313 (≈ 367 µg/mL) | 500 (≈ 586 µg/mL) | 206 (≈ 241 µg/mL) | 630 | –

Now from value to compound, other results behind:

Row | %max [1] [%] | solubility (physchem) [µM] | solubility ([3]; 0.01 N HCl) [µM] | solubility [4] [µM] | Compound | DC50 [2] [nM] | also measured
8 | 11 | 183 (≈ 198 µg/mL) | 293 (≈ 318 µg/mL) | 71 (≈ 76.9 µg/mL) | Cc1ncsc1-c1ccc(CNC(=O)[C@@H]2C[C@@H](O)CN2C(=O)[C@@H](NC(=O)COCCOCCOCc2cn(CCNC(=O)C[C@@H]3N=C(c4ccc(Cl)cc4)c4c(sc(C)c4C)-n4c(C)nnc43)nn2)C(C)(C)C)cc1 | 240 | –
9 | – | 216 (≈ 197 µg/mL) | 310 (≈ 283 µg/mL) | 130 (≈ 119 µg/mL) | Cc1sc2c(c1C)C(c1ccc(Cl)cc1)=N[C@@H](CC(=O)NCCn1cc(COCCOCCOCCOc3cccc4c3C(=O)N(C3CCC(=O)NC3=O)C4=O)nn1)c1nnc(C)n1-2 (stereo partly specified) | – | –
10 | – | 237 (≈ 206 µg/mL) | 237 (≈ 206 µg/mL) | 76 (≈ 66.1 µg/mL) | Cc1sc2c(c1C)C(c1ccc(Cl)cc1)=N[C@@H](CC(=O)NCCn1cc(COCCOCCOc3cccc4c3C(=O)N(C3CCC(=O)NC3=O)C4=O)nn1)c1nnc(C)n1-2 (stereo partly specified) | > 5000 | –
11 | – | 273 (≈ 261 µg/mL) | 317 (≈ 304 µg/mL) | 158 (≈ 151 µg/mL) | Cc1sc2c(c1C)C(c1ccc(Cl)cc1)=N[C@@H](CC(=O)NCCn1cc(COCCOCCOCCOCCOc3cccc4c3C(=O)N(C3CCC(=O)NC3=O)C4=O)nn1)c1nnc(C)n1-2 (stereo partly specified) | 200 | Activity [7]: inactive; Activity [8]: > 90%; Activity [9]: inactive; Activity [10]: inactive
12 | – | 247 (≈ 204 µg/mL) | 242 (≈ 200 µg/mL) | 111 (≈ 91.6 µg/mL) | Cc1sc2c(c1C)C(c1ccc(Cl)cc1)=N[C@@H](CC(=O)NCCn1cc(COCCOc3cccc4c3C(=O)N(C3CCC(=O)NC3=O)C4=O)nn1)c1nnc(C)n1-2 (stereo partly specified) | > 5000 | –
13 | – | 97 (≈ 76.2 µg/mL) | 171 (≈ 134 µg/mL) | 60 (≈ 47.1 µg/mL) | Cc1sc2c(c1C)C(c1ccc(Cl)cc1)=N[C@@H](CC(=O)NCCCCNC(=O)COc1cccc3c1C(=O)N(C1CCC(=O)NC1=O)C3=O)c1nnc(C)n1-2 (stereo partly specified) | – | –
14 | – | 191 (≈ 149 µg/mL) | 171 (≈ 134 µg/mL) | 31 (≈ 24.2 µg/mL) | Cc1sc2c(c1C)C(c1ccc(Cl)cc1)=N[C@@H](CC(=O)NCCn1cc(COc3cccc4c3C(=O)N(C3CCC(=O)NC3=O)C4=O)nn1)c1nnc(C)n1-2 (stereo partly specified) | – | –
